Measured values published in the OPERA property sets (Mansouri et al. 2018).

Conditions: not given

What does the source list for `OCCC1CCCCN1` (stereo unspecified)?
boiling point: 202 °C; melting point: 69 °C

With `C[C@]12CC[C@H]3C(=CCc4cc(O)ccc43)[C@@H]1CC[C@@H]2O` as the compound, how does the melting point read?
Its melting point is 174 °C.

Which boiling point does the source give for `CCCCCCCC=O` here?
The boiling point was 171 °C.

And the log10 Henry constant (atm·m³/mol)?
Its log10 Henry constant (atm·m³/mol) is -3.29.

What about the log10 Koa of the same compound?
Its log10 Koa is 5.36.

What about the log10 vapour pressure (mmHg) of the same compound?
Its log10 vapour pressure (mmHg) is 0.0719.

And the melting point?
Its melting point is -23 °C.

For `CCCCOC(=O)COC(=O)c1ccccc1C(=O)OCCCC`, which log10 Koc (L/kg) is on record?
The log10 Koc (L/kg) was 3.7.

What about the ready biodegradability of the same compound?
Its ready biodegradability is “readily biodegradable”.

With `Oc1ccccc1N=Nc1ccccc1O` as the compound, how does the melting point read?
Its melting point is 173 °C.

With `CC(C)COCc1ccccc1` as the compound, how does the boiling point read?
The boiling point was 212 °C.

What does the source list for `CCOc1ccccc1O`?
boiling point: 217 °C; melting point: 29 °C

With `O=C(c1ccccc1)C1CC1` as the compound, how does the melting point read?
The melting point was -7.9 °C.

For `C[N+](C)(C)CCOC(=O)NCCCCCCNC(=O)OCC[N+](C)(C)C.[Br-].[Br-]`, which melting point is on record?
Its melting point is 175 °C.

Which melting point does the source give for `O=[N+]([O-])c1cccc(SSc2cccc([N+](=O)[O-])c2)c1` here?
The melting point was 84 °C.

Which boiling point does the source give for `COCC(C)Cl` (stereo unspecified) here?
The boiling point was 99 °C.

With `Clc1cccc(Cl)n1` as the compound, how does the boiling point read?
The boiling point was 211 °C.

What about the melting point of the same compound?
Its melting point is 88 °C.

And the ready biodegradability?
Its ready biodegradability is “not readily biodegradable”.

For `OCCc1ccc(Cl)cc1`, which boiling point is on record?
Its boiling point is 259 °C.

For `CCCCC(O)(Cn1cncn1)c1ccc(Cl)cc1Cl` (stereo unspecified), which log10 vapour pressure (mmHg) is on record?
Its log10 vapour pressure (mmHg) is -6.87.

And the melting point?
Its melting point is 111 °C.

With `CCC(C)CCCC(C)C` (stereo unspecified) as the compound, how does the boiling point read?
The boiling point was 160 °C.

And the log10 vapour pressure (mmHg)?
Its log10 vapour pressure (mmHg) is 0.469.

With `C=CC#CCC` as the compound, how does the boiling point read?
The boiling point was 85 °C.

For `CC(=O)CCC(=O)OCC(C)C`, which boiling point is on record?
Its boiling point is 228 °C.

With `CCC1CCC(=O)CC1` as the compound, how does the boiling point read?
The boiling point was 193 °C.

With `Clc1cc(Cl)c(OCC#CI)cc1Cl` as the compound, how does the melting point read?
The melting point was 114 °C.

For `CON=C(C)c1cccc(Oc2nc(OC)cc(OC)n2)c1C(=O)OC`, which log10 vapour pressure (mmHg) is on record?
The log10 vapour pressure (mmHg) was -6.64.

And the melting point?
The melting point was 107 °C.

Which ready biodegradability does the source give for `CC(C)C1CCCc2ccccc21` (stereo unspecified) here?
Its ready biodegradability is “not readily biodegradable”.

For `CCC(C)S` (stereo unspecified), which boiling point is on record?
The boiling point was 84.5 °C.

What about the log10 vapour pressure (mmHg) of the same compound?
The log10 vapour pressure (mmHg) was 1.91.

What about the melting point of the same compound?
Its melting point is -165 °C.

With `OCCCCCCCCCO` as the compound, how does the melting point read?
The melting point was 45.8 °C.

Which results are given for `CCCCOC(=O)c1ccccc1C(=O)OCCCC`?
boiling point: 340 °C; log10 Henry constant (atm·m³/mol): -5.74; log10 Koc (L/kg): 3.14; log10 vapour pressure (mmHg): -4.7; melting point: -35 °C; ready biodegradability: readily biodegradable

What does the source list for `c1ccc2c(c1)Oc1ccccc1O2`?
log10 vapour pressure (mmHg): -3.38; melting point: 122 °C

Which melting point does the source give for `CC(=O)N(C(C)=O)c1ccc(/N=N/c2ccccc2C)cc1C` here?
Its melting point is 75 °C.

For `CCCCCCCCCCCCCCCC[N+](C)(C)C`, which ready biodegradability is on record?
Its ready biodegradability is “not readily biodegradable”.

With `O=C(O)CSc1ccccc1` as the compound, how does the melting point read?
The melting point was 65 °C.

For `C=C[Si](OC(C)C)(OC(C)C)OC(C)C`, which boiling point is on record?
Its boiling point is 180 °C.

Which melting point does the source give for `CCSCC(=O)O` here?
The melting point was -8.5 °C.

For `O=Cc1ccc(Cl)c(Cl)c1`, which boiling point is on record?
Its boiling point is 248 °C.

What about the melting point of the same compound?
Its melting point is 44 °C.

With `Cc1ccccc1O` as the compound, how does the boiling point read?
The boiling point was 191 °C.

What about the log10 Henry constant (atm·m³/mol) of the same compound?
The log10 Henry constant (atm·m³/mol) was -5.92.

What about the log10 vapour pressure (mmHg) of the same compound?
The log10 vapour pressure (mmHg) was -0.524.

What about the melting point of the same compound?
The melting point was 29.8 °C.

What about the ready biodegradability of the same compound?
Its ready biodegradability is “readily biodegradable”.

With `CCc1ccccc1OC` as the compound, how does the boiling point read?
The boiling point was 187 °C.

For `CN(C)c1ccc(C2(c3ccc(N(C)C)cc3)OC(=O)c3cc(N(C)C)ccc32)cc1`, which ready biodegradability is on record?
The ready biodegradability was “not readily biodegradable”.

Which results are given for `CS(=O)(=O)F`?
boiling point: 124 °C; log10 vapour pressure (mmHg): 1.04

For `C=CCn1c(=O)n(CC=C)c(=O)n(CC=C)c1=O`, which melting point is on record?
Its melting point is 20.5 °C.

And the ready biodegradability?
The ready biodegradability was “not readily biodegradable”.

Which results are given for `OC(c1ccc(Cl)cc1)(c1cncnc1)c1ccccc1Cl` (stereo unspecified)?
log10 Koc (L/kg): 2.78; melting point: 118 °C

With `CCC(CC)CC` as the compound, how does the boiling point read?
Its boiling point is 93.5 °C.

And the log10 biodegradation half-life (days)?
Its log10 biodegradation half-life (days) is 0.602.

And the log10 vapour pressure (mmHg)?
The log10 vapour pressure (mmHg) was 1.76.

And the melting point?
The melting point was -119 °C.

Which log10 Koa does the source give for `Brc1ccc(Oc2ccccc2Br)cc1` here?
Its log10 Koa is 8.47.

With `C#CC(C)(C)NC(=O)c1ccc(F)cc1` as the compound, how does the log10 Koc (L/kg) read?
The log10 Koc (L/kg) was 1.68.

Which melting point does the source give for `CCC(COCCOc1c(I)cc(I)c(NC(C)=O)c1I)C(=O)O` (stereo unspecified) here?
The melting point was 130 °C.

With `CCCc1ccncc1` as the compound, how does the boiling point read?
The boiling point was 185 °C.

With `CCCCCCCCCCCCCCCCCCCCCCO` as the compound, how does the melting point read?
Its melting point is 72.5 °C.

Which log10 vapour pressure (mmHg) does the source give for `CCN(C(=O)SCc1ccccc1)C(C)C(C)C` (stereo unspecified) here?
The log10 vapour pressure (mmHg) was -5.12.

With `CC(N)CCN` (stereo unspecified) as the compound, how does the boiling point read?
The boiling point was 140 °C.

For `CCCCC(CC)COCC(CC)CCCC` (stereo unspecified), which boiling point is on record?
The boiling point was 269 °C.

With `ON=C1CCCCC1` as the compound, how does the boiling point read?
Its boiling point is 206 °C.

And the log10 vapour pressure (mmHg)?
Its log10 vapour pressure (mmHg) is -1.55.

And the melting point?
Its melting point is 90 °C.

With `Clc1cc(Cl)c(-c2c(Cl)c(Cl)cc(Cl)c2Cl)c(Cl)c1Cl` as the compound, how does the log10 Henry constant (atm·m³/mol) read?
The log10 Henry constant (atm·m³/mol) was -4.77.

For `CC1CNCC(C)O1` (stereo unspecified), which boiling point is on record?
Its boiling point is 147 °C.

What about the melting point of the same compound?
Its melting point is -88 °C.

For `COCC(COC)OC`, which boiling point is on record?
Its boiling point is 148 °C.

With `CC(CO)(CO)CO` as the compound, how does the boiling point read?
Its boiling point is 283 °C.

And the melting point?
Its melting point is 204 °C.

What about the ready biodegradability of the same compound?
The ready biodegradability was “not readily biodegradable”.

With `NS(=O)(=O)c1ccc(CCCCO)cc1` as the compound, how does the melting point read?
Its melting point is 78.5 °C.

Which boiling point does the source give for `C#CC(C)(O)CC` (stereo unspecified) here?
Its boiling point is 120 °C.

What about the log10 vapour pressure (mmHg) of the same compound?
The log10 vapour pressure (mmHg) was 0.72.

What about the melting point of the same compound?
The melting point was 30.5 °C.

What about the ready biodegradability of the same compound?
Its ready biodegradability is “readily biodegradable”.

With `CC(C)C(=O)OC1CCCCC1` as the compound, how does the boiling point read?
Its boiling point is 204 °C.

Same assay, conditions: fish

Which log10 BCF does the source give for `O=C(O)c1c(Cl)cccc1Cl` here?
Its log10 BCF is 0.26.

With `CCCC(Cn1cncn1)c1ccc(Cl)cc1Cl` (stereo unspecified) as the compound, how does the log10 biotransformation half-life (days) read?
Its log10 biotransformation half-life (days) is 1.19.

Which log10 biotransformation half-life (days) does the source give for `Cc1ccc2c(c1)CCCC2(C)C` here?
The log10 biotransformation half-life (days) was 0.83.

For `CCCCCCCCC(C)CCC` (stereo unspecified), which log10 biotransformation half-life (days) is on record?
The log10 biotransformation half-life (days) was 0.98.

For `CCC(C)CCCC(C)C` (stereo unspecified), which log10 biotransformation half-life (days) is on record?
The log10 biotransformation half-life (days) was 0.61.

Which log10 biotransformation half-life (days) does the source give for `CCOP(=S)(OCC)ON=C(C#N)c1ccccc1` here?
Its log10 biotransformation half-life (days) is 0.84.

Which results are given for `CCCCOC(=O)c1ccccc1C(=O)OCCCC`?
log10 BCF: 2.22; log10 biotransformation half-life (days): -0.4

Which results are given for `Cc1ccccc1O`?
log10 BCF: 1.03; log10 biotransformation half-life (days): -0.52

With `OC(c1ccc(Cl)cc1)(c1cncnc1)c1ccccc1Cl` (stereo unspecified) as the compound, how does the log10 biotransformation half-life (days) read?
Its log10 biotransformation half-life (days) is 0.57.

Which log10 biotransformation half-life (days) does the source give for `C=C(C)CCCCCCCCCC` here?
Its log10 biotransformation half-life (days) is 0.64.

For `Clc1cc(Cl)c(-c2c(Cl)c(Cl)cc(Cl)c2Cl)c(Cl)c1Cl`, which log10 biotransformation half-life (days) is on record?
Its log10 biotransformation half-life (days) is 2.46.
